# Patent US11077090B2, “Compounds and compositions and uses thereof” (Sunovion Pharmaceuticals Inc., priority 2016, dated 2021)
# Test system: compound-treated mice
# Assay: Neuropharmacological assay (SmartCube): behavioral activity signature and minimal effective dose
# Assay type: in vivo
# Conditions: for minimal effective dose: Mus musculus, ip, MED = dose having 50% or more total activity, read-out: Potency: minimal effective dose (MED); for AD: ADHD (probability of activity signature) / AG: analgesic (probability of activity signature) / AX: anxiolytic (probability of activity signature) / CE: cognitive enhancer (probability of activity signature) / DP: anti-depressant (probability of activity signature) / MS: mood stabilizer (probability of activity signature) / PS: anti-psychotic (probability of activity signature) / SD: sedative hypnotic (probability of activity signature) / UN: uncharacterized CNS activity (probability of activity signature): i.p. 15 min before test, most efficacious dose(s)
# Excerpt: Neurosci. 2011 Sep. 9; 5:103 (doi: 10.3389/fnins.2011.00103) (“Roberds”). As reported in Roberds, because psychiatric diseases generally result from disorders of cell-cell communication or circuitry, intact systems are useful in detecting improvement in disease-relevant endpoints. These endpoints are typically behavioral in nature, often requiring human observation and interpretation. To facilitate testing of multiple compounds for behavioral effects relevant to psychiatric disease, PsychoGenics, Inc. (Tarrytown, N.Y., “PGI”) developed SmartCube™, an automated system in which behaviors of compound-treated mice are captured by digital video and analyzed with computer algorithms. (D. Brunner et al., Drug Discov. Today 2002, 7:S107-S112). PGI Analytical Systems uses data from SmartCube™ to compare the behavioral signature of a test compound to a database of behavioral signatures obtained using a large set of diverse reference compounds. (The composition of the database as well as validation of the method is further described in Roberds). In this way, the neuropharmacological effects of a test compound can be predicted by similarity to major classes of compounds, such as antipsychotics, anxiolytics and antidepressants.
# The SmartCube™ system produces an activity signature indicating the probability that the activity of the test compound at the administered dose matches a given class of neuropharmacological agents. (See, e.g., Roberds, FIGS. 2 and 3). The test compound is simultaneously compared against multiple classes of agents; thus, a separate probability is generated for each behavioral effect measured (e.g., anxiolytic activity, analgesic activity, etc.). In the table below, these probabilities are reported for each behavioral effect measured as follows:
# where LOQ is the limit of quantification.
# Provided compounds were dissolved in a mixture of Pharmasolve™ (N-methyl-2-pyrrolidone), polyethylene glycol and propylene glycol, and were injected i.p. 15 min. before the behavioral test. For each compound, injections were administered at 3 different doses. For each behavioral effect measured, results for the most efficacious dose(s) are presented. In the table below, DP: anti-depressant; AX: anxiolytic; SD: sedative hypnotic; PS: anti-psychotic; MS: mood stabilizer; AD: ADHD; CE: cognitive enhancer; AG: analgesic; UN: uncharacterized CNS activity.
# The potency of many of the compounds in the table was also determined in the SmartCube™ system. Test compounds were routinely examined at dose levels of 0.3, 1, 3, 10 and 30 mg per kg (mpk), although the dose range was increased or decreased if necessary to obtain a full dose response curve. A compound's minimal effective dose (MED) is a measure of the compounds potency. The MED was defined as the dose (in mpk) having 50% or more total activity in SmartCube.
SMILES,minimal effective dose [mg/kg],AD: ADHD (probability of activity signature),AG: analgesic (probability of activity signature),AX: anxiolytic (probability of activity signature),CE: cognitive enhancer (probability of activity signature),DP: anti-depressant (probability of activity signature),MS: mood stabilizer (probability of activity signature),PS: anti-psychotic (probability of activity signature),SD: sedative hypnotic (probability of activity signature),UN: uncharacterized CNS activity (probability of activity signature)
"C[C@@H]1OCc2ccccc2[C@@H]1N.Cl (relative stereo) [Example 72, cis-3-methylisochroman-4-amine hydrochloride]",3 to 10,+ (LOQ ≤ + <5%),++ (5% ≤ ++ <25%),++ (5% ≤ ++ <25%),++ (5% ≤ ++ <25%),++ (5% ≤ ++ <25%),+ (LOQ ≤ + <5%),++ (5% ≤ ++ <25%),++ (5% ≤ ++ <25%),+++ (25% ≤ +++ <50%)
"C[C@@H]1OCc2ccccc2[C@H]1N.Cl (relative stereo) [Example 73, trans-3-methylisochroman-4-amine hydrochloride]",< 3,+ (LOQ ≤ + <5%),++ (5% ≤ ++ <25%),+++ (25% ≤ +++ <50%),++ (5% ≤ ++ <25%),++ (5% ≤ ++ <25%),+ (LOQ ≤ + <5%),++ (5% ≤ ++ <25%),+ (LOQ ≤ + <5%),+++ (25% ≤ +++ <50%)
"Cc1ccc2c(c1)[C@H](N)[C@H](C)COC2.Cl (relative stereo) [Example 74, cis-4,7-dimethyl-1,3,4,5-tetrahydrobenzo [c]oxepin-5-amine hydrochloride]",10 to 30,+ (LOQ ≤ + <5%),++ (5% ≤ ++ <25%),++ (5% ≤ ++ <25%),+ (LOQ ≤ + <5%),++ (5% ≤ ++ <25%),+ (LOQ ≤ + <5%),+ (LOQ ≤ + <5%),+ (LOQ ≤ + <5%),+++ (25% ≤ +++ <50%)
"Cc1ccc2c(c1)[C@H](N)[C@@H](C)COC2.Cl (relative stereo) [Example 75, trans-4,7-dimethyl-1,3,4,5-tetrahydrobenzo [c]oxepin-5-amine hydrochloride]",10 to 30,+ (LOQ ≤ + <5%),++ (5% ≤ ++ <25%),++ (5% ≤ ++ <25%),++ (5% ≤ ++ <25%),+ (LOQ ≤ + <5%),+ (LOQ ≤ + <5%),++ (5% ≤ ++ <25%),+ (LOQ ≤ + <5%),+++ (25% ≤ +++ <50%)
"Cc1ccc2c(c1)[C@H](N)[C@H](C)OC2.Cl (relative stereo) [Example 76, cis-3,6-Dimethylisochroman-4-amine hydrochloride]",< 3,+ (LOQ ≤ + <5%),++ (5% ≤ ++ <25%),++ (5% ≤ ++ <25%),++ (5% ≤ ++ <25%),++ (5% ≤ ++ <25%),+ (LOQ ≤ + <5%),++ (5% ≤ ++ <25%),+ (LOQ ≤ + <5%),+++ (25% ≤ +++ <50%)
